According to patent US8754066B2, “Phenoxy derivatives as sphingosine 1-phosphate (S1P) receptor modulators” (Allergan, Inc., priority 2012, dated 2014):
pEC50: −log10 of the molar value.

molecular target: T1, human S1P1 receptor (Homo sapiens, UniProt P21453); test: GTP γ35S binding assay for S1P1 activity; assay type: biochemical; settings: activity potency from GTP γ35S binding; 5 μg membrane protein; test compounds 0.08 to 5,000 nM; 30 min at 25° C.
T1 construct: expressed in transfected cells; host or cells: unnamed cells stably expressing the receptor; membranes used
Protocol: Compounds were synthesized and tested for S1P1 activity using the GTP γ^35S binding assay. These compounds may be assessed for their ability to activate or block activation of the human S1P1 receptor in cells stably expressing the […] receptor.
GTP γ^35S binding was measured in the medium containing (mM) HEPES 25, pH 7.4, MgCl2 10, NaCl 100, dithitothreitol 0.5, digitonin 0.003%, 0.2 nM GTP γ^35S, and 5 μg membrane protein in a volume of 150 μl. Test compounds were included in the concentration range from 0.08 to 5,000 nM unless indicated otherwise. Membranes were incubated with 100 μM 5′-adenylylimmidodiphosphate for 30 min, and subsequently with 10 μM GDP for 10 min on ice. Drug solutions and membrane were mixed, and then reactions were initiated by adding GTP γ^35S and continued for 30 min at 25° C. Reaction mixtures were filtered over Whatman GF/B filters under vacuum, and washed three times with 3 mL of ice-cold buffer (HEPES 25, pH7.4, MgCl2 10 and NaCl 100). Filters were dried and mixed with scintillant, and counted for ^35S activity using a β-counter. Agonist-induced GTP γ^35S binding was obtained by subtracting that in the absence of agonist. Binding data were analyzed using a non-linear regression method. In case of antagonist assay, the reaction mixture contained 10 nM S1P in the presence of test antagonist at concentrations ranging from 0.08 to 5000 nM.
Activity potency: S1P1 receptor from GTP γ^35S: nM, (EC50),

T1 sequence (P21453 whole entry): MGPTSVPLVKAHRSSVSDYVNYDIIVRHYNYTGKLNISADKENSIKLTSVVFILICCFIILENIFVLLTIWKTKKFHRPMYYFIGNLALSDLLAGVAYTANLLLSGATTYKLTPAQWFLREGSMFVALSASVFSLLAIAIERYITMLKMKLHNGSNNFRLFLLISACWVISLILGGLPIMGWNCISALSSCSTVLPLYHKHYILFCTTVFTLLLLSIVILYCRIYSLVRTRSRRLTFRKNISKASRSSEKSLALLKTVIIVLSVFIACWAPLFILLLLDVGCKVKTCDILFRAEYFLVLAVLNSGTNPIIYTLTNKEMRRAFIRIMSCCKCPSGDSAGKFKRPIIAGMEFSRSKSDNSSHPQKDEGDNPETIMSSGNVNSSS

Row | Compound | pEC50
1 | Cc1ccc(CC(CCCOc2ccc(CNCCCP(=O)(O)O)cc2)c2cc(F)cc(F)c2)cc1C (centres unmarked) [Compound 9, {3-[(4-{[4-(3,5-difluorophenyl)-5-(3,4-dimethylphenyl)pentyl]oxy}benzyl)amino]propyl}phosphonic acid] | 11.00
2 | Cc1ccc(CC(CCOc2ccc(CNCCCP(=O)(O)O)cc2)c2cccc(Cl)c2)cc1C (centres unmarked) [Compound 11, [3-({4-[3-(3-chlorophenyl)-4-(3,4-dimethylphenyl)butoxy]benzyl}amino)propyl]phosphonic acid] | 8.13
3 | Cc1ccc(CC(CCCOc2ccc(CNCCCP(=O)(O)O)cc2)c2cccc(Cl)c2)cc1C (centres unmarked) [Compound 10, {3-[(4-{[4-(3-chlorophenyl)-5-(3,4-dimethylphenyl)pentyl]oxy}benzyl)amino]propyl}phosphonic acid] | 9.64
4 | Cc1ccc(CC(CCCOc2ccc(CNCCC(=O)O)cc2)c2cccc(Cl)c2)cc1C (centres unmarked) [Compound 5, 3-[(4-{[4-(3-chlorophenyl)-5-(3,4-dimethylphenyl)pentyl]oxy}benzyl)amino]propanoic acid] | 7.23
5 | Cc1ccc(CC(CCCOc2ccc(CNCCC(=O)O)cc2)c2cccc(F)c2F)cc1C (centres unmarked) [Compound 2, 3-[(4-{[4-(2,3-difluorophenyl)-5-(3,4-dimethylphenyl)pentyl]oxy}benzyl)amino]propanoic acid] | 9.07
6 | Cc1ccc(CC(CCCCOc2ccc(CNCCC(=O)O)cc2)c2cccc(Cl)c2)cc1C (centres unmarked) [Compound 3, 3-[(4-{[5-(3-chlorophenyl)-6-(3,4-dimethylphenyl)hexyl]oxy}benzyl)amino]propanoic acid] | 6.87
7 | Cc1ccc(CC(CCCOc2ccc(CNCCC(=O)O)cc2)c2ccsc2)cc1C (centres unmarked) [Compound 1, 3-[(4-{[5-(3,4-dimethylphenyl)-4-(3-thienyl)pentyl]oxy}benzyl)amino]propanoic acid] | 7.85
8 | Cc1ccc(CC(CCOc2ccc(CNCCC(=O)O)cc2)c2cccc(Cl)c2)cc1C (centres unmarked) [Compound 6, 3-({4-[3-(3-chlorophenyl)-4-(3,4-dimethylphenyl)butoxy]benzyl}amino)propanoic acid] | 7.01
9 | Cc1ccc(CC(CCCOc2ccc(CNCCCP(=O)(O)O)cc2)c2ccsc2)cc1C (centres unmarked) [Compound 7] | 8.68
10 | Cc1ccc(CC(CCCCOc2ccc(CNCCCP(=O)(O)O)cc2)c2cccc(Cl)c2)cc1C (centres unmarked) [Compound 8, {3-[(4-{[5-(3-chlorophenyl)-6-(3,4-dimethylphenyl)hexyl]oxy}benzyl)amino]propyl}phosphonic acid] | 7.77
11 | Cc1ccc(CC(CCCOc2ccc(CNCCC(=O)O)cc2)c2cc(F)cc(F)c2)cc1C (centres unmarked) [Compound 4, 3-[(4-{[4-(3,5-difluorophenyl)-5-(3,4-dimethylphenyl)pentyl]oxy}benzyl)amino]propanoic acid] | 7.75
